Source: paper PMC12338828, “Evaluation of organotin (IV) dithiocarbamate compounds as potential anti-leukemia agents towards CCRF-CEM (CCL-119) cell line: Cytotoxic, apoptotic, cell cycle and genotoxic study” (PLOS One, 2025)
“And” between values parts separate entries of the source, which are not always exact repeats. Equal values may be shown once.

Experiments:
CCL-119 cells [1] = test: MTT cytotoxicity assay; settings: 24 hours; for cell viability at 0.31 µM / cell viability at 0.63 µM / cell viability at 1.25 µM / cell viability at 2.50 µM / cell viability at 5.00 µM: single replicates n1-n3, untreated = 100.00; for cell viability at 2.50 µM: 2.5 µM; for Selectivity Index (SI): IC50 WIL2-NS / IC50 CCL-119
Experimental: The T-acute lymphoblastic leukemia cell line, CCRF-CEM (CCL-119™), and a non-cancerous cell, WIL2-NS (CRL-8155™), were purchased from the American Type Culture Collection (ATCC). Both are suspension types of cells and were cultured in Roswell Park Memorial Institute Medium 1640 (RPMI-1640) (Sigma-Aldrich), supplemented with 10% Fetal Bovine Serum (FBS) (Capricorn Scientific) and 1% penicillin-streptomycin (Nacalai Tesque) to obtain the complete growth medium and were incubated at 37 °C with a 5% CO2 incubator. Both suspension cells are used for tests when the cells’ passage becomes passage 3–10 (maximum).
All stock solutions of the organotin (IV) dithiocarbamate compounds were prepared at 10 mM and dissolved in dimethyl sulphoxide (DMSO) (ChemAR®). The stock solutions were stored at 4°C; fresh dilutions were made by adding the RPMI-1640 medium before the experiment. The dilution is carried out using the serial dilution method to obtain the desired concentrations, which are 5 µM, 2.5 µM, 1.25 µM, 0.63 µM, 0.32 µM, and 0.16 µM in this study. Vincristine (VCR) is used as a positive control in this study.
Both CCL-119 and WIL2-NS cells were seeded in a 96-well plate at a final concentration of 5 x 10^5 cells/well and treated with 5 µM, 2.5 µM, 1.25 µM, 0.63 µM, 0.32 µM, and 0.16 µM of organotin (IV) dithiocarbamate compound for 24 hours at 37°C with 5% CO2. VCR was used as a positive control in this study, while cells without treatment were used as a negative control. After 24 hours of exposure, 20 µL of MTT (Merck) salt solution was added into each well and incubated for another 4 hours. The plate was wrapped with aluminium foil as MTT salt is light sensitive. After 4 hours, the purple crystal formazan was formed. All the medium was removed carefully from each well, and 200 µL DMSO was added to each well to dissolve the purple formazan crystal. Then, the plates were incubated for an additional 15 minutes. The results were analyzed and recorded using an ELISA microplate reader at 570 nm. The data was then plotted into a graph, and IC50 values were determined.
The selectivity index (SI) is determined by dividing the cytotoxic activity (IC50 value) of each compound on a non-cancerous cell line (WIL2-NS) by the leukemia cell line (CCL-119). […] WIL2- NS cell lines were selected as the comparator because it is a non-cancerous human B lymphoblast cell line, which is like CCL-119 (T-lymphoblastic leukemia), derived from lymphocytes. This choice ensures that comparisons are made between biologically similar cell types, minimizing variability that could arise from differences in tissue origin or lineage.

CCL-119 cells [2] = test: Mode of cell death, Annexin V-FITC/PI staining (flow cytometry); type: cell-based; settings: for Early Apoptosis (Q4) / Late Apoptosis (Q2) / Necrosis (Q1) / Viable (Q3): 24 hours at IC50, single replicates n1-n3
Experimental: The mode of cell death can be observed through the Annexin V-FITC/PI staining (BD, USA). The result of this test is either apoptosis or necrosis. […] VCR was used as a positive control, while cells without any treatment were used as a negative control. Then, the plate was incubated for 24 hours. After the incubation, the cell suspension in each well was collected into different Eppendorf tubes. The tubes were then centrifuged for 5 minutes at 1500 rpm at 4°C. After the centrifuge, the supernatant in the tubes was removed, and the cell pellets were washed twice with cold PBS. Then, centrifuge the tubes again and remove the supernatant. Next, 100 µL of Annexin V binding buffer was resuspended in each tube, and 5 µL Annexin V-FITC was pipetted into the tube to stain the cells for 15 minutes at room temperature, dark. After that, 5 µL of propidium iodide was piped into the tube for 5 minutes. The staining process is done in dark conditions. Lastly, the sample was transferred into the Falcon tube, and each tube was resuspended in 400 µL of Annexin V binding buffer. The sample was analyzed using a flow cytometer (BD FACS Canto II) within one hour.

CCL-119 cells [3] = test: Cell cycle analysis (PI/RNase staining); type: cell-based; settings: for cells in G0/G1 phase / cells in G2/M phase / cells in S phase: 24 hours at IC50, single replicates n1-n3
Experimental: The cells were cultured and seeded in a 6-well plate at 1 x 10^6 cells/mL. VCR was used as a positive control, and untreated cells were used as a negative control in this assay. The concentration of the compounds and VCR was followed by IC50 values that were taken from the MTT assay.
After 24 hours of incubation, all cells in the plate were transferred to the Eppendorf tube and centrifuged for 5 minutes at 4°C at 1500 rpm. After centrifuging, the supernatant was removed, and cells were washed with 500 µL cold PBS three times. The pellet was fixed by using 70% ethanol overnight at −20°C. Next, the samples were stained with 500 µL of PI/RNase staining buffer and incubated for 15 minutes. The samples were then transferred into Falcon tubes. The data was recorded using a flow cytometer and analyzed using ModFit LT software.

WIL2-NS cells = system: WIL2-NS cells; set-up: method as in Rasli et al. (2023); settings: non-cancerous cells; 24 hours of exposure; graph referred to earlier paper; ref Rasli et al. (2023); cited from earlier work
CCL-119 cells [4] = test: Alkaline comet assay; type: cell-based; settings: 1 hour of exposure
Experimental: VCR was used as a positive control, and untreated cells were used as a negative control in this assay. The cells were incubated for 1 hour. After incubation, cells in each well were transferred to the Eppendorf tube to centrifuge for 5 minutes at 4°C by using a refrigerated microcentrifuge. The supernatant was removed, and the samples were washed with 1 mL of cold PBS. This process was repeated 3 times. After completion of the process, the supernatant was removed, and the pellet was left for a while on top of the ice while preparing the slide.
About 140 µL of normal melting agar (NMA) is pipetted on top of the fully frosted slide, and a cover slip is put on the agar for 5 minutes or until the agar fully solidifies. After that, the cover slip was removed, and 80 µL of low melting agar (LMA) was added to an Eppendorf tube containing the pellet of cells. The suspension was then transferred into a frosted slide with NMA agar. The cover slip was then put back on top of the frosted slide for 10 minutes or until dry. Next, the slide was transferred into a Coplin jar that contained lysis buffer solution and Triton X-100. The slides were then incubated at 4°C overnight. The slides were arranged on an electrophoresis tank filled with electrophoresis buffer for 20 minutes. Electrophoresis is done for another 20 minutes at 25 V with 300 mA. The slides were washed with a neutralization buffer solution 3 times at a 5-minute time interval. Finally, 30 µL of ethidium bromide (50 µg/mL) was added, and the slide was observed by using fluorescence microscopy (OLYMPUS BX51TR). CometScore software is used to analyze the DNA damage of the cells. The comet assay was performed under alkaline conditions (pH > 13) to detect both single- and double-strand DNA breaks.

Row | Compound | cell viability at 0.31 µM (CCL-119 cells [1]) | cell viability at 0.63 µM (CCL-119 cells [1]) | cell viability at 1.25 µM (CCL-119 cells [1]) | cell viability at 2.50 µM (CCL-119 cells [1]) | cell viability at 5.00 µM (CCL-119 cells [1]) | Selectivity Index (SI) (CCL-119 cells [1]) | Early Apoptosis (Q4) (CCL-119 cells [2]) | Late Apoptosis (Q2) (CCL-119 cells [2]) | Necrosis (Q1) (CCL-119 cells [2]) | Viable (Q3) (CCL-119 cells [2]) | cells in G0/G1 phase (CCL-119 cells [3]) | cells in G2/M phase (CCL-119 cells [3]) | cells in S phase (CCL-119 cells [3]) | Phases of Cell Cycle Arrest (CCL-119 cells [3]; 24 hours at IC50 concentrations) | IC50 (WIL2-NS cells) | Tail moment (CCL-119 cells [4]; mean ± SEM) | percentage of DNA intensity in the tail (CCL-119 cells [4]; mean ± SEM) | % DNA intensity (CCL-119 cells [4]; single replicates n1-n3) | Tail moment (CCL-119 cells [4]; single replicates n1-n3) | population of cells undergoing necrosis (CCL-119 cells [2]; 24 hours, treated at IC50)
1 | C=CCN(CC=C)C(=S)[S][Sn]([c]1ccccc1)([c]1ccccc1)[c]1ccccc1 [ODTC 4, triphenyltin (IV) diallyl dithiocarbamate] | 30.40% and 42.75% and 41.34% | 24.51% and 37.25% and 30.23% | 26.67% and 22.56% and 24.61% | 25.39% and 26.40% and 25.55% | 20.16% and 12.33% and 18.27% | 4.19 | 41.4% and 46.5% and 27% | 15.2% and 19.2% and 9.9% | 0.2% and 0.1% | 43.2% and 34.2% and 63% | 45.09% and 46.03% and 29.64% | 8.07% and 7.1% and 0% | 46.84% and 46.87% and 70.36% | S phase | 0.67 ± 0.14 µM | 25.83 ± 2.60 A.U | 14.24 ± 0.94% | 12.9244% and 13.7623% and 16.0541% | 29.2637 A.U and 27.4848 A.U and 20.7304 A.U | –
2 | CCN(CC)C(=S)[S][Sn]([c]1ccccc1)([c]1ccccc1)[c]1ccccc1 [ODTC 5, triphenyltin (IV) diethyl dithiocarbamate] | 37.70% and 42.75% and 36.81% | 39.38% and 30.79% and 37.35% | 35.19% and 39.06% and 29.63% | 37.67% and 28.99% and 27.66% | 16.16% and 17.11% and 21.93% | 4.16 | 10.9% and 47.3% and 16.6% | 6.4% and 17.1% and 18.5% | 12.9% and 0.1% | 69.8% and 35.6% and 64.8% | 64.02% and 86.49% and 54.56% | 30.58% and 13.51% and 45.44% | 5.4% and 0% | – | 0.79 ± 0.05 µM | 12.61 ± 1.56 A.U | 11.59 ± 1.18% | 13.8528% and 11.0312% and 9.872% | 15.0222 A.U and 13.1179 A.U and 9.676 A.U | 4.37%
